Laboratory results from patent publication US11572399B2, “Long-acting GIP peptide analogues” (University of Copenhagen, priority 2017, dated 2023).
Read-outs that look alike come from different tables or passages of the source. Peptide text beside a SMILES is read from it. * marks the point of attachment. Lauroyl = CCCCCCCCCCCC(=O)*

What was measured:
[1] = molecular target: T1, human GIP receptor (Homo sapiens, UniProt P48546); assay: cAMP accumulation assay, agonism (ligand alone); format: cell-based; settings: COS-7 cells, Table 1; for Emax: COS-7, intrinsic cAMP activity
T1 construct: host or cells: COS-7, transient transfection (calcium phosphate), cDNA in pCMV-Script
T1 sequence (P48546 22-466): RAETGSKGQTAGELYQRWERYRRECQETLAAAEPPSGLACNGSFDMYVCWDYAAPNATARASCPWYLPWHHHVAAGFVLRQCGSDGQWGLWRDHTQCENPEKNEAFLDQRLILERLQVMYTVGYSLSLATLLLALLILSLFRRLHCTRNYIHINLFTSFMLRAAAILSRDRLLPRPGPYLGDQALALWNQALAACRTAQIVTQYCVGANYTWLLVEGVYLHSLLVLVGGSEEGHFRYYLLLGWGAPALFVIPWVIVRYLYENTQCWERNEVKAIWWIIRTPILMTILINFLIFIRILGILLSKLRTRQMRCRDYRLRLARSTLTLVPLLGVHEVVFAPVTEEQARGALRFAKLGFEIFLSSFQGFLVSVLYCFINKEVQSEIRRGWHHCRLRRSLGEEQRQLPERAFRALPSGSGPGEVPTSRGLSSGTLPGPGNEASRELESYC

[2] = molecular target: T1, human GIP receptor; assay: 125I-human GIP competition binding assay, in the presence and absence of 2% HSA; settings: for Binding fold (paired): fold decrease in affinity compared to GIP(3-30)NH2; for Fold change HSA (2%)/Casein (0.1%): IC50 (plus HSA)/IC50 (minus HSA);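 as to all read-outs here: nonspecific binding taken as radioligand bound to untransfected cells, IC50 obtained from nonlinear regression fits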
[3] = heterologous competition binding, transiently transfected COS-7 cells expressing the human GIP receptor, read-out: Binding
[4] = binding in 0.1% casein (absence of HSA), log value, read-out: logIC50 0.1% casein (converted)

| SMILES | Emax [1] [%] | Fold change HSA (2%)/Casein (0.1%) [2] | IC50 [2, 4] [nM] | further results |
| --- | --- | --- | --- | --- |
| CCCCCCCCCCCCCC(=O)N[C@@H](CCC(=O)O)C(=O)NCC(=O)N[C@H](C(=O)N[C@@H](Cc1ccccc1)C(=O)N[C@H](C(=O)N[C@@H](CO)C(=O)N[C@@H](CC(=O)O)C(=O)N[C@@H](Cc1ccc(O)cc1)C(=O)N[C@@H](CO)C(=O)N[C@H](C(=O)N[C@@H](C)C(=O)N[C@@H](CCSC)C(=O)N[C@@H](CC(=O)O)C(=O)N[C@@H](CCCCN)C(=O)N[C@H](C(=O)N[C@@H](Cc1c[nH]cn1)C(=O)N[C@@H](CCC(N)=O)C(=O)N[C@@H](CCC(N)=O)C(=O)N[C@@H](CC(=O)O)C(=O)N[C@@H](Cc1ccccc1)C(=O)N[C@H](C(=O)N[C@@H](CC(N)=O)C(=O)N[C@@H](Cc1c[nH]c2ccccc12)C(=O)N[C@@H](CC(C)C)C(=O)N[C@@H](CC(C)C)C(=O)N[C@@H](C)C(=O)N[C@@H](CCC(N)=O)C(=O)N[C@@H](CCCCN)C(N)=O)C(C)C)[C@@H](C)CC)[C@@H](C)CC)[C@@H](C)CC)[C@@H](C)O [AT110, [hGIP(3-30)NH2—C14/3]] | 64 |  |  | Binding fold (paired) ([2]; Table 3b): 5.2 fold |
| CCCCCCCCCCCCCCCCCC(=O)N[C@@H](CCC(=O)O)C(=O)NCC(=O)N[C@H](C(=O)N[C@@H](Cc1ccccc1)C(=O)N[C@H](C(=O)N[C@@H](CO)C(=O)N[C@@H](CC(=O)O)C(=O)N[C@@H](Cc1ccc(O)cc1)C(=O)N[C@@H](CO)C(=O)N[C@H](C(=O)N[C@@H](C)C(=O)N[C@@H](CCSC)C(=O)N[C@@H](CC(=O)O)C(=O)N[C@@H](CCCCN)C(=O)N[C@H](C(=O)N[C@@H](Cc1c[nH]cn1)C(=O)N[C@@H](CCC(N)=O)C(=O)N[C@@H](CCC(N)=O)C(=O)N[C@@H](CC(=O)O)C(=O)N[C@@H](Cc1ccccc1)C(=O)N[C@H](C(=O)N[C@@H](CC(N)=O)C(=O)N[C@@H](Cc1c[nH]c2ccccc12)C(=O)N[C@@H](CC(C)C)C(=O)N[C@@H](CC(C)C)C(=O)N[C@@H](C)C(=O)N[C@@H](CCC(N)=O)C(=O)N[C@@H](CCCCN)C(N)=O)C(C)C)[C@@H](C)CC)[C@@H](C)CC)[C@@H](C)CC)[C@@H](C)O [AT113, [hGIP(3-30)NH2—C18/3]] | 77 |  |  | EC50 ([1]; read-out: cAMP agonism nM (EC50)): 9.9 nM; IC50 ([2]; Table 3b, initial data, read-out: Binding IC50): 41400 nM; Binding fold (paired) ([2]; Table 3b): 16380 fold; IC50 [2, 3]: 41400 nM |
| CCCCCCCCCCCC(=O)NCCCC[C@H](NC(=O)[C@@H](NC(=O)[C@H](CCCCN)NC(=O)[C@H](CC(=O)O)NC(=O)[C@H](CCSC)NC(=O)[C@H](C)NC(=O)[C@@H](NC(=O)[C@H](CO)NC(=O)[C@H](Cc1ccc(O)cc1)NC(=O)[C@H](CC(=O)O)NC(=O)[C@H](CO)NC(=O)[C@@H](NC(=O)[C@H](Cc1ccccc1)NC(=O)[C@@H](NC(=O)CNC(=O)[C@@H](N)CCC(=O)O)[C@@H](C)O)[C@@H](C)CC)[C@@H](C)CC)[C@@H](C)CC)C(=O)N[C@@H](CCC(N)=O)C(=O)N[C@@H](CCC(N)=O)C(=O)N[C@@H](CC(=O)O)C(=O)N[C@@H](Cc1ccccc1)C(=O)N[C@H](C(=O)N[C@@H](CC(N)=O)C(=O)N[C@@H](Cc1c[nH]c2ccccc12)C(=O)N[C@@H](CC(C)C)C(=O)N[C@@H](CC(C)C)C(=O)N[C@@H](C)C(=O)N[C@@H](CCC(N)=O)C(=O)N[C@@H](CCCCN)C(N)=O)C(C)C [AT116, [hGIP(3-30)NH2—C12/18]] (H-EGTFISDYSIAMDKIK(Lauroyl)QQDFVNWLLAQK-NH2; N-terminus assumed) | 0 |  |  | Fold change in affinity, IC50 (plus HSA)/IC50 (minus HSA) ([2]; presence vs absence of 2% HSA, proxy for albumin binding): 5.2 fold |
| CCCCCCCCCCCCCC(=O)NCCCC[C@H](NC(=O)[C@H](CC(=O)O)NC(=O)[C@H](CCSC)NC(=O)[C@H](C)NC(=O)[C@@H](NC(=O)[C@H](CO)NC(=O)[C@H](Cc1ccc(O)cc1)NC(=O)[C@H](CC(=O)O)NC(=O)[C@H](CO)NC(=O)[C@@H](NC(=O)[C@H](Cc1ccccc1)NC(=O)[C@@H](N)[C@@H](C)O)[C@@H](C)CC)[C@@H](C)CC)C(=O)N[C@H](C(=O)N[C@@H](Cc1c[nH]cn1)C(=O)N[C@@H](CCC(N)=O)C(=O)N[C@@H](CCC(N)=O)C(=O)N[C@@H](CC(=O)O)C(=O)N[C@@H](Cc1ccccc1)C(=O)N[C@H](C(=O)N[C@@H](CC(N)=O)C(=O)N[C@@H](Cc1c[nH]c2ccccc12)C(=O)N[C@@H](CC(C)C)C(=O)N[C@@H](CC(C)C)C(=O)N[C@@H](C)C(=O)N[C@@H](CCC(N)=O)C(=O)N[C@@H](CCCCN)C(N)=O)C(C)C)[C@@H](C)CC [AT122, [hGIP(5-30)NH2—C14/16]] | 0 | 4.9 | 1260 |  |
| CCCCCCCCCCCCCCCC(=O)N[C@H](C(=O)N[C@@H](Cc1ccccc1)C(=O)N[C@H](C(=O)N[C@@H](CO)C(=O)N[C@@H](CC(=O)O)C(=O)N[C@@H](Cc1ccc(O)cc1)C(=O)N[C@@H](CO)C(=O)N[C@H](C(=O)N[C@@H](C)C(=O)N[C@@H](CCSC)C(=O)N[C@@H](CC(=O)O)C(=O)N[C@@H](CCCCN)C(=O)N[C@H](C(=O)N[C@@H](Cc1c[nH]cn1)C(=O)N[C@@H](CCC(N)=O)C(=O)N[C@@H](CCC(N)=O)C(=O)N[C@@H](CC(=O)O)C(=O)N[C@@H](Cc1ccccc1)C(=O)N[C@H](C(=O)N[C@@H](CC(N)=O)C(=O)N[C@@H](Cc1c[nH]c2ccccc12)C(=O)N[C@@H](CC(C)C)C(=O)N[C@@H](CC(C)C)C(=O)N[C@@H](C)C(=O)N[C@@H](CCC(N)=O)C(=O)N[C@@H](CCCCN)C(N)=O)C(C)C)[C@@H](C)CC)[C@@H](C)CC)[C@@H](C)CC)[C@@H](C)O [AT124, [hGIP(5-30)NH2—C16/5]] | 0 | 5.2 | 1580 |  |
| CCCCCCCCCCCCCCCCCC(=O)N[C@H](C(=O)N[C@@H](Cc1ccccc1)C(=O)N[C@H](C(=O)N[C@@H](CO)C(=O)N[C@@H](CC(=O)O)C(=O)N[C@@H](Cc1ccc(O)cc1)C(=O)N[C@@H](CO)C(=O)N[C@H](C(=O)N[C@@H](C)C(=O)N[C@@H](CCSC)C(=O)N[C@@H](CC(=O)O)C(=O)N[C@@H](CCCCN)C(=O)N[C@H](C(=O)N[C@@H](Cc1c[nH]cn1)C(=O)N[C@@H](CCC(N)=O)C(=O)N[C@@H](CCC(N)=O)C(=O)N[C@@H](CC(=O)O)C(=O)N[C@@H](Cc1ccccc1)C(=O)N[C@H](C(=O)N[C@@H](CC(N)=O)C(=O)N[C@@H](Cc1c[nH]c2ccccc12)C(=O)N[C@@H](CC(C)C)C(=O)N[C@@H](CC(C)C)C(=O)N[C@@H](C)C(=O)N[C@@H](CCC(N)=O)C(=O)N[C@@H](CCCCN)C(N)=O)C(C)C)[C@@H](C)CC)[C@@H](C)CC)[C@@H](C)CC)[C@@H](C)O [AT127, [hGIP(5-30)NH2—C18/5]] | 0 | 0.0 | 1580 |  |
| CCCCCCCCCCCCCCCCCC(=O)NCCCC[C@H](NC(=O)[C@H](CCC(N)=O)NC(=O)[C@H](C)NC(=O)[C@H](CC(C)C)NC(=O)[C@H](CC(C)C)NC(=O)[C@H](Cc1c[nH]c2ccccc12)NC(=O)[C@H](CC(N)=O)NC(=O)[C@@H](NC(=O)[C@H](Cc1ccccc1)NC(=O)[C@H](CC(=O)O)NC(=O)[C@H](CCC(N)=O)NC(=O)[C@H](CCC(N)=O)NC(=O)[C@H](Cc1c[nH]cn1)NC(=O)[C@@H](NC(=O)[C@H](CCCCN)NC(=O)[C@H](CC(=O)O)NC(=O)[C@H](CCSC)NC(=O)[C@H](C)NC(=O)[C@@H](NC(=O)[C@H](CO)NC(=O)[C@H](Cc1ccc(O)cc1)NC(=O)[C@H](CC(=O)O)NC(=O)[C@H](CO)NC(=O)[C@@H](NC(=O)[C@H](Cc1ccccc1)NC(=O)[C@@H](N)[C@@H](C)O)[C@@H](C)CC)[C@@H](C)CC)[C@@H](C)CC)C(C)C)C(N)=O [AT129, [hGIP(5-30)NH2—C18/30]] | 0 |  |  | IC50 ([2]; heterologous competition binding, transiently transfected COS-7 cells expressing the human GIP receptor, log value of the nM column, read-out: Binding log (converted)): 126000 nM |
| CC[C@H](C)[C@H](NC(=O)[C@H](CO)NC(=O)[C@H](Cc1ccc(O)cc1)NC(=O)[C@H](CC(=O)O)NC(=O)[C@H](CO)NC(=O)[C@@H](NC(=O)[C@H](Cc1ccccc1)NC(=O)[C@@H](N)[C@@H](C)O)[C@@H](C)CC)C(=O)N[C@@H](C)C(=O)N[C@@H](CCSC)C(=O)N[C@@H](CC(=O)O)C(=O)N[C@@H](CCCCNC(=O)CCCCCCCCCCCCC(=O)O)C(=O)N[C@H](C(=O)N[C@@H](Cc1c[nH]cn1)C(=O)N[C@@H](CCC(N)=O)C(=O)N[C@@H](CCC(N)=O)C(=O)N[C@@H](CC(=O)O)C(=O)N[C@@H](Cc1ccccc1)C(=O)N[C@H](C(=O)N[C@@H](CC(N)=O)C(=O)N[C@@H](Cc1c[nH]c2ccccc12)C(=O)N[C@@H](CC(C)C)C(=O)N[C@@H](CC(C)C)C(=O)N[C@@H](C)C(=O)N[C@@H](CCC(N)=O)C(=O)N[C@@H](CCCCN)C(N)=O)C(C)C)[C@@H](C)CC [AT139, [hGIP(5-30)NH2—C14diacid/16]] | 0 | 2.6 | 158 | IC50 [2, 3]: 153 nM |
